Assay results published in patent publication US20080170990A1, “Methods for Myocardial Imaging in Patients Having a History of Pulmonary Disease” (CV THERAPEUTICS, INC., priority 2006, published 2008).

How the values were obtained:
[1] = test system: AMP-sensitive subjects with mild or moderate asthma; test: Double-blind placebo-controlled cross-over study of pulmonary function in AMP-sensitive asthma (Examples 9, 11); format: in vivo, human
Procedure: The primary objective was to compare the incidence of bronchoconstrictive reactions, defined as reduction from baseline in FEV1 of >15% within 2 hours following an intravenous (iv) bolus of 400 micrograms of Regadenoson or matching placebo.
Men or women ≧18 years of age with a diagnosis of mild or moderate asthma as documented by clinical history and pulmonary function test were considered for inclusion. The target was to enrolled 48 evaluable subjects: 24 mild and 24 moderate asthma subjects. […] Patients were not permitted short-acting bronchodilators for >6 hours and long-acting bronchodilators and methylxanthines for >24 hours prior to AMP, Regadenoson, or placebo.
AMP (adenosine 5′-monophosphate sodium salt) was used as an indirect bronchoconstrictor stimulus to select a group of susceptible subjects with adenosine-mediated bronchial hyperreactivity. A standard clinical protocol utilized by the investigative site for the inhalation of AMP for the purpose of provoking a bronchoconstrictor response in the airways was adopted for screening of all subjects. On arrival in the unit, subjects were required to rest for 15 minutes before assessment of lung function at baseline, measured as the best of 3 technically acceptable recordings of FEV1 taken at 1-minute intervals. Subject inhaled a series of five breaths of saline as control, followed by a breath of each increasing concentration of AMP at 3-minute intervals. Two measurements of FEV1 were to be made 90 and 150 seconds after each saline inhalation. The highest FEV1 value was to be recorded. Unless a fall in FEV1 of >10% from the baseline value was observed, subjects then inhaled increasing doubling concentrations of AMP (starting at 0.39 mg/mL) until a ≧20% decrease of FEV1 from the post-saline value was recorded. FEV1 was to be recorded at 90 and 150 seconds after each concentration was administered.
Subjects received 400 μg Regadenoson or placebo administered as an intravenous (iv) bolus in a double-blind cross-over design. Repeated measurements of FEV1 as an assessment of bronchoconstriction were performed before and for up to 2 hours after study drug administration.
Two similar randomized, double-blind, placebo (PLC)-controlled crossover trials were conducted, one in asthmatics with a positive adenosine monophosphate (AMP) challenge (a validated marker of airway inflammation) and one in patients with moderate or several chronic obstructive pulmonary disease (COPD). In both studies, short-acting bronchodilators were held prior to and for the 120 minute time frame study drug treatment during which spirometry was repeatedly assessed.

[2] = test system: healthy, non-smoking male subjects; test: Phase 1 ascending dose study, safety and maximum tolerated dose (Example 3); format: in vivo, human
Procedure: The study was performed using thirty-six healthy, non-smoking male subjects between the ages of 18 and 59 and within 15% of ideal body weight.
The study was performed in phase 1, single center, double-blind, randomized, placebo-controlled, crossover, ascending dose study. Randomization was to Regadenoson or placebo, in both supine and standing positions.
Regadenoson was administered as an IV bolus (20 seconds) in ascending doses of […], 10, 20 and 30 μg/kg.
Subjects received either Regadenoson of placebo on Day 1 supine, then crossover treatment on Day 2 supine. On Day 3, subjects received Regadenoson or placebo standing, then crossover treatment on Day 4 standing.
Patient safety was monitored by ECG, laboratory assessments, and collection of vital signs and adverse events.

[3] = 30 μg/kg supine, 4 subjects per group

Compound: CNC(=O)c1cnn(-c2nc(N)c3ncn([C@@H]4O[C@H](CO)[C@@H](O)[C@H]4O)c3n2)c1 [Regadenoson, (1-{9-[(4S,2R,3R,5R)-3,4-dihydroxy-5-(hydroxymethyl)oxolan-2-yl]-6-aminopurin-2-yl}pyrazol-4-yl)-N-methylcarboxamide]
- incidence of chest discomfort ([1]; 400 μg iv bolus): 21%
- incidence of dizziness ([1]; 400 μg iv bolus): 53%
- incidence of dyspnea ([1]; 400 μg iv bolus): 34%
- incidence of flushing ([1]; 400 μg iv bolus): 32%
- incidence of headache ([1]; 400 μg iv bolus): 45%
- incidence of nausea ([1]; 400 μg iv bolus): 19%
- incidence of paraesthesia ([1]; 400 μg iv bolus): 19%
- incidence of tachycardia ([1]; 400 μg iv bolus): 66%
- time for HR to return to within 5 bpm of baseline ([1]; 400 μg iv bolus): ≤ 60 min
- maximum increase in HR ([1]; 400 μg iv bolus, compared with placebo): +10.4 bpm
- incidence of adverse events ([1]; 400 μg iv bolus, placebo 8%): 98%
- incidence of dyspnea following REG ([1]; asthma study): 34%
- Number of patients with FEV1 decline by >20% over 120 min ([1]; asthma study N=48): 1 REG, 0 PLC
- Number of patients with FEV1 decline by >30% over 120 min ([1]; asthma study N=48): 1 REG, 0 PLC
- Number of patients with use of acute oxygen or short-acting bronchodilators ([1]; asthma study N=48): 0 REG, 0 PLC
- mean FEV1, all post-bolus time points combined ([1]; asthma study N=48, p = 0.17 vs PLC): 3.33 (0.9)L REG
- Number of patients with FEV1 decline by >15% over 120 min ([1]; asthma study N=48, p = 0.99): 2 REG, 2 PLC
- subjects with bronchoconstriction (FEV1 reduction >15% within 2 hours) ([1]; mild asthma (n=24), 400 μg iv bolus): None
- number of subjects having bronchoconstriction (FEV1 reduction >15% within 2 hours) ([1]; moderate asthma (n=24), 400 μg iv bolus): 2
- number of subjects with severe AE: Palpitation [2, 3]: 2
- number of subjects with severe AE: Syncope [2, 3]: 0
- tolerability ([2]; healthy volunteers, single IV bolus): well-tolerated
- mean tolerable dose ([2]; standing): 0.01 mg/kg
- mean tolerable dose ([2]; supine): 0.02 mg/kg
